Among the data in patent US20220324835A1 (Nurix Therapeutics, Inc., priority 2018, published 2022) are IC50 values, retold here.

As usually defined, the IC50 is the point on the concentration scale where inhibition reaches its midpoint.

In assay [1] the target is T1, Cbl-b (Homo sapiens, UniProt Q13191). Description: Cbl-b inhibition assay (Cbl-b activity assay, FRET, Biological Example 1; 100 mM NaCl, 60 nM Src kinase). The format is biochemical. Conditions: upper bound stated in text lists; read-out: IC50 values in the Cbl-b inhibition assay of Biological Example 1. The procedure, abridged:
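Steps: Src kinase phosphorylates N-terminal biotinylated Avi-tagged Cbl-b; phosphorylated Cbl-b binds Bodipy-fluorescein ubiquitin-loaded UbcH5B; streptavidin-terbium on Cbl-b sits close to the fluorescein label, producing FRET. Inhibitors block UbcH5B-Ub binding.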

Assay [2] concerns the target T1, Cbl-b. The experiment in a line: Cbl-b activity assay (Cbl-b inhibition assay), TR-FRET of Cbl-b interaction with UbcH5B-Ub. In kind it is biochemical. To be noted: assay buffer with 100 mM NaCl, 60 nM Src kinase; read-out: Cbl-b activity IC50. The procedure, abridged: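 Compound-treated Cbl-b was incubated 1.5 h with Src kinase (60 nM final; 30 nM for asterisked values, which also used 50 mM instead of 100 mM NaCl), 1 mM ATP and 5 mM MgCl2. Binding to fluorescent Ub-loaded UbcH5B (C85K mutant) was then read by TR-FRET after 1 h more.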
On the technique in general: Time-resolved FRET reads energy transfer from a long-lived donor to a nearby acceptor.

T1 sequence (Q13191 36-427): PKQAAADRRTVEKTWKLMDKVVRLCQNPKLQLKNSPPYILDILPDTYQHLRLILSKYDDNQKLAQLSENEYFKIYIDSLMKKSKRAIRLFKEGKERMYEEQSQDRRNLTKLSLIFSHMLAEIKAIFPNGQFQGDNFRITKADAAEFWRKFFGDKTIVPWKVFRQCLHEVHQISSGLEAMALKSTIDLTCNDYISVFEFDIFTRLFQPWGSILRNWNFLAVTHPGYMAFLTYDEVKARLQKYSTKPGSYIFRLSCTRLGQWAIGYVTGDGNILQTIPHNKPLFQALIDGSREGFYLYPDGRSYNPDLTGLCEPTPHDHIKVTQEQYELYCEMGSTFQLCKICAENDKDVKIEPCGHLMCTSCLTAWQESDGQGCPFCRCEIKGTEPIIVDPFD

Consider `Cn1cnnc1CC1(c2cccc(N3Cc4c(cc(C(O)C(F)(F)F)cc4C(F)(F)F)C3=O)c2)COC1` (centres unmarked) [Example 580, 2-(3-(3-((4-Methyl-4H-1,2,4-triazol-3-yl)methyl)oxetan-3-yl)phenyl)-6-(2,2,2-trifluoro-1-hydroxyethyl)-4-(trifluoromethyl)isoindolin-1-one], for which the values for the IC50 on Cbl-b [1] and at Cbl-b [2] were ≤ 100 nM and < 100 nM, respectively.

For `Cc1cc(C(=O)Nc2cccc(C3(Cc4nncn4C)COC3)c2)n2nc(C)cc2n1` [Example 597, 2,5-dimethyl-N-(3-(3-((4-methyl-4H-1,2,4-triazol-3-yl)methyl)oxetan-3-yl)phenyl)pyrazolo[1,5-a]pyrimidine-7-carboxamide], the IC50 is ≤ 300 nM on Cbl-b [1] and 100 to 300 nM at Cbl-b [2].

For `Cn1cnnc1CC1(c2cccc(N3Cc4c(cc(C5CCCOC5)cc4C(F)(F)F)C3=O)c2)COC1` (centres unmarked) [Example 615, 2-(3-(3-((4-methyl-4H-1,2,4-triazol-3-yl)methyl)oxetan-3-yl)phenyl)-6-(tetrahydro-2H-pyran-3-yl)-4-(trifluoromethyl)isoindolin-1-one], the IC50 is ≤ 100 nM at Cbl-b [1] and < 100 nM on Cbl-b [2].

Consider `CC1=C(c2cc3c(c(C(F)(F)F)c2)CN(c2cccc(C4(Cc5nncn5C)COC4)c2)C3=O)CCO1` [Example 616, 6-(2-methyl-4,5-dihydrofuran-3-yl)-2-(3-(3-((4-methyl-4H-1,2,4-triazol-3-yl)methyl)oxetan-3-yl)phenyl)-4-(trifluoromethyl)isoindolin-1-one], for which the IC50 at Cbl-b [1] is ≤ 100 nM; at Cbl-b [2] it was < 100 nM.

Take `Cn1cnnc1C[C@H](c1cccc(N2Cc3c(cccc3C(F)(F)F)C2=O)c1)C(F)F` [Example 617, (R)-2-(3-(1,1-difluoro-3-(4-methyl-4H-1,2,4-triazol-3-yl)propan-2-yl)phenyl)-4-(trifluoromethyl)isoindolin-1-one]: the IC50 on Cbl-b [1] is ≤ 300 nM; at Cbl-b [2] it was 100 to 300 nM.

With `Cn1cnnc1CC1(c2cccc(N3Cc4c(cc(CN5CC[C@H](F)[C@@H](F)C5)cc4C(F)(F)F)C3=O)c2)COC1` [Example 626a, 6-(((3S,4S)-3,4-difluoropiperidin-1-yl)methyl)-2-(3-(3-((4-methyl-4H-1,2,4-triazol-3-yl)methyl)oxetan-3-yl)phenyl)-4-(trifluoromethyl)isoindolin-1-one], the IC50 on Cbl-b [1] is ≤ 100 nM; on Cbl-b [2] it was < 100 nM.

On to `Cn1cnnc1CC1(c2cccc(N3Cc4c(cc(CN5CC[C@@H](F)[C@H](F)C5)cc4C(F)(F)F)C3=O)c2)COC1` [Example 626b, 6-(((3R,4R)-3,4-difluoropiperidin-1-yl)methyl)-2-(3-(3-((4-methyl-4H-1,2,4-triazol-3-yl)methyl)oxetan-3-yl)phenyl)-4-(trifluoromethyl)isoindolin-1-one], for which the half-inhibitory concentration (IC50) on Cbl-b [1] was ≤ 100 nM; on Cbl-b [2], < 100 nM.

For `Cn1cnnc1CC1(c2cccc(N3Cc4c(cc(CN5CCOC(C(F)F)C5)cc4C(F)(F)F)C3=O)c2)COC1` (centres unmarked) [Example 630, 6-{[2-(difluoromethyl)morpholin-4-yl]methyl}-2-(3-{3-[(4-methyl-1,2,4-triazol-3-yl)methyl]oxetan-3-yl}phenyl)-4-(trifluoromethyl)-3H-isoindol-1-one], the half-inhibitory concentration (IC50) on Cbl-b [1] was ≤ 100 nM; at Cbl-b [2], < 100 nM.

For the molecule `Cn1cnnc1CC1(c2cccc(N3Cc4c(cc(CN5CCc6ccncc6C5)cc4C(F)(F)F)C3=O)c2)COC1` [Example 638, 6-((3,4-dihydro-2,7-naphthyridin-2(1H)-yl)methyl)-2-(3-(3-((4-methyl-4H-1,2,4-triazol-3-yl)methyl)oxetan-3-yl)phenyl)-4-(trifluoromethyl)isoindolin-1-one], the half-maximal inhibitory concentration (IC50) on Cbl-b [1] was ≤ 100 nM; on Cbl-b [2], < 100 nM.

As to `C[C@@H]1CCN(Cc2cc3c(c(C(F)(F)F)c2)CN(c2cccc(C4(Cc5nncn5C)COC4)c2)C3=O)C[C@@H]1F` [Example 639a, 6-(((3R,4R)-3-fluoro-4-methylpiperidin-1-yl)methyl)-2-(3-(3-((4-methyl-4H-1,2,4-triazol-3-yl)methyl)oxetan-3-yl)phenyl)-4-(trifluoromethyl)isoindolin-1-one], the IC50 at Cbl-b [1] is ≤ 100 nM; at Cbl-b [2], < 100 nM.

Turning to `C[C@H]1CCN(Cc2cc3c(c(C(F)(F)F)c2)CN(c2cccc(C4(Cc5nncn5C)COC4)c2)C3=O)C[C@H]1F` [Example 639b, 6-(((3S,4S)-3-fluoro-4-methylpiperidin-1-yl)methyl)-2-(3-(3-((4-methyl-4H-1,2,4-triazol-3-yl)methyl)oxetan-3-yl)phenyl)-4-(trifluoromethyl)isoindolin-1-one], the values for the half-maximal inhibitory concentration (IC50) on Cbl-b [1] and at Cbl-b [2] were ≤ 100 nM and < 100 nM, respectively.

In the case of `Cn1cnnc1CC1(c2cccc(N3Cc4c(cc(CN5CC6CC(C5)C6(F)F)cc4C(F)(F)F)C3=O)c2)COC1` [Example 640, 6-((6,6-difluoro-3-azabicyclo[3.1.1]heptan-3-yl)methyl)-2-(3-(3-((4-methyl-4H-1,2,4-triazol-3-yl)methyl)oxetan-3-yl)phenyl)-4-(trifluoromethyl)isoindolin-1-one], the IC50 on Cbl-b [1] was ≤ 100 nM; on Cbl-b [2], < 100 nM.

As to `Cn1cnnc1CC1(c2cccc(N3Cc4c(cc(CN5CCc6cccnc6C5)cc4C(F)(F)F)C3=O)c2)COC1` [Example 645, 6-((5,8-dihydro-1,7-naphthyridin-7(6H)-yl)methyl)-2-(3-(3-((4-methyl-4H-1,2,4-triazol-3-yl)methyl)oxetan-3-yl)phenyl)-4-(trifluoromethyl)isoindolin-1-one], the 50% inhibitory concentration (IC50) was ≤ 100 nM on Cbl-b [1] and < 100 nM at Cbl-b [2].

`Cn1cnnc1CC1(c2cccc(N3Cc4c(cc(CN5CCC(F)(F)C(O)C5)cc4C(F)(F)F)C3=O)c2)COC1` (centres unmarked) [Example 647, 6-((4,4-difluoro-3-hydroxypiperidin-1-yl)methyl)-2-(3-(3-((4-methyl-4H-1,2,4-triazol-3-yl)methyl)oxetan-3-yl)phenyl)-4-(trifluoromethyl)isoindolin-1-one]: the half-inhibitory concentration (IC50) on Cbl-b [1] was ≤ 100 nM; at Cbl-b [2], < 100 nM.

For `Cn1cnnc1CC1(c2cccc(N3Cc4c(cc(CN5CCc6cnccc6C5)cc4C(F)(F)F)C3=O)c2)COC1` [Example 648, 6-((3,4-dihydro-2,6-naphthyridin-2(1H)-yl)methyl)-2-(3-(3-((4-methyl-4H-1,2,4-triazol-3-yl)methyl)oxetan-3-yl)phenyl)-4-(trifluoromethyl)isoindolin-1-one], the IC50 at Cbl-b [1] was ≤ 100 nM; at Cbl-b [2], < 100 nM.

For `Cn1cnnc1CC1(c2cccc(N3Cc4c(cc(CN5Cc6cccc(Cl)c6C5)cc4C(F)(F)F)C3=O)c2)COC1` [Example 657, 6-((4-chloroisoindolin-2-yl)methyl)-2-(3-(3-((4-methyl-4H-1,2,4-triazol-3-yl)methyl)oxetan-3-yl)phenyl)-4-(trifluoromethyl)isoindolin-1-one], the IC50 on Cbl-b [1] is ≤ 100 nM; at Cbl-b [2] it was < 100 nM.

Turning to `Cn1cnnc1CC1(c2cccc(N3Cc4c(cc(CN5Cc6cccc(C#N)c6C5)cc4C(F)(F)F)C3=O)c2)COC1` [Example 658, 2-((2-(3-(3-((4-methyl-4H-1,2,4-triazol-3-yl)methyl)oxetan-3-yl)phenyl)-3-oxo-7-(trifluoromethyl)isoindolin-5-yl)methyl)isoindoline-4-carbonitrile], the values for the concentration for half-maximal inhibition (IC50) on Cbl-b [1] and on Cbl-b [2] were ≤ 100 nM and < 100 nM, respectively.

`Cn1cnnc1CC1(c2cccc(N3Cc4c(cc(CN5Cc6ccc(Cl)cc6C5)cc4C(F)(F)F)C3=O)c2)COC1` [Example 659, 6-((5-chloroisoindolin-2-yl)methyl)-2-(3-(3-((4-methyl-4H-1,2,4-triazol-3-yl)methyl)oxetan-3-yl)phenyl)-4-(trifluoromethyl)isoindolin-1-one]: the IC50 at Cbl-b [1] was ≤ 100 nM; on Cbl-b [2] it was < 100 nM.

Regarding `COc1ccc2c(c1)CN(Cc1cc3c(c(C(F)(F)F)c1)CN(c1cccc(C4(Cc5nncn5C)COC4)c1)C3=O)CC2` [Example 661, 6-((7-methoxy-3,4-dihydroisoquinolin-2(1H)-yl)methyl)-2-(3-(3-((4-methyl-4H-1,2,4-triazol-3-yl)methyl)oxetan-3-yl)phenyl)-4-(trifluoromethyl)isoindolin-1-one], the 50% inhibitory concentration (IC50) was ≤ 100 nM on Cbl-b [1] and < 100 nM on Cbl-b [2].

In the case of `Cn1cnnc1CC1(c2cccc(N3Cc4c(cc(CN5CC[C@@H](c6ccccc6)C5)cc4C(F)(F)F)C3=O)c2)COC1` [Example 662b, (S)-2-(3-(3-((4-methyl-4H-1,2,4-triazol-3-yl)methyl)oxetan-3-yl)phenyl)-6-((3-phenylpyrrolidin-1-yl)methyl)-4-(trifluoromethyl)isoindolin-1-one], the figures for the IC50 at Cbl-b [1] and at Cbl-b [2] were ≤ 100 nM and < 100 nM, respectively.

On to `C[C@@H]1CN(Cc2cc3c(c(C(F)(F)F)c2)CN(c2cccc(C4(Cc5nncn5C)COC4)c2)C3=O)C[C@H](C)O1` [Example 664, 6-(((cis)-2,6-dimethylmorpholino)methyl)-2-(3-(3-((4-methyl-4H-1,2,4-triazol-3-yl)methyl)oxetan-3-yl)phenyl)-4-(trifluoromethyl)isoindolin-1-one], for which the 50% inhibitory concentration (IC50) is ≤ 100 nM at Cbl-b [1] and < 100 nM on Cbl-b [2].

`Cn1cnnc1CC1(c2cccc(N3Cc4c(cc(CN5CCOC(C)(C)C5)cc4C(F)(F)F)C3=O)c2)COC1` [Example 665, 6-((2,2-dimethylmorpholino)methyl)-2-(3-(3-((4-methyl-4H-1,2,4-triazol-3-yl)methyl)oxetan-3-yl)phenyl)-4-(trifluoromethyl)isoindolin-1-one]: the IC50 was ≤ 100 nM on Cbl-b [1] and < 100 nM on Cbl-b [2].
